These are literature values, as cited in patent US20260216201A1 (priority 2025, published 2026).

For this series the following is noted: n-octanol/buffer pH 7.4.

Structures are written as SMILES.

Regarding `Cc1cnc(NC(=O)C2=C(O)c3ccccc3S(=O)(=O)N2C)s1` [Meloxicam, 4-hydroxy-2-methyl-N-(5 methyl-2-thiazolyl)-2H-1,2-benzothiazine-3-carboxamide-1,1-dioxide], the “apparent partition coefficient (log P)” value is 0.1.
